Results: ChEMBL document CHEMBL1201862, “PubChem BioAssay data set” (2004)
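Values below derive from 48-hour exposures of cells grown in 96-well plates, with endpoints linearly interpolated between the two concentrations bracketing the appropriate inhibition level. GI50 marks 50% less growth.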 Activity calls are given as the source filed them. Cut-off read from the data, not from the text of the source: active = GI50 up to about 1.1 µM and inactive = higher.

Experiments:
Assay in all cases: inhibition of tumour cell growth, NCI panel, 48 h
CAKI-1 = tested on: CAKI-1
OVCAR-8 = tested on: OVCAR-8
NCI-H226 = tested on: NCI-H226
K562 = tested on: K562
CCRF-CEM = tested on: CCRF-CEM
MDA-N = tested on: MDA-N
SK-MEL-2 = tested on: SK-MEL-2
ACHN = tested on: ACHN
TK-10 = tested on: TK-10
Hs-578T = tested on: Hs-578T
EKVX = tested on: EKVX
OVCAR-5 = tested on: OVCAR-5
SNB-75 = tested on: SNB-75
NCI-H23 = tested on: NCI-H23
A498 = tested on: A498
OVCAR-3 = tested on: OVCAR-3
SR = tested on: SR
SNB-19 = tested on: SNB-19
M14 = tested on: M14
HOP-92 = tested on: HOP-92

Compound | GI50 (CAKI-1) | GI50 (OVCAR-8) | GI50 (NCI-H226) | GI50 (K562) | GI50 (CCRF-CEM) | GI50 (MDA-N) | GI50 (SK-MEL-2) | GI50 (ACHN) | GI50 (TK-10) | GI50 (Hs-578T) | GI50 (EKVX) | GI50 (OVCAR-5) | GI50 (SNB-75) | GI50 (NCI-H23) | GI50 (A498) | GI50 (OVCAR-3) | GI50 (SR) | GI50 (SNB-19) | GI50 (M14) | GI50 (HOP-92)
CN(CCNC(=O)c1n[nH]c2c1ccc1ccccc12)CCNC(=O)c1n[nH]c2c1ccc1ccccc12 | 8.73 µM (inactive) | 2.05 µM (inactive) | 4.32 µM (inactive) | 2.26 µM (inactive) | 2.2 µM (inactive) | 1.86 µM (inactive) | 8.2 µM (inactive) | 1.83 µM (inactive) | 2.25 µM (inactive) | 1.96 µM (inactive) | 1.63 µM (inactive) | 1.81 µM (inactive) | 1.85 µM (inactive) | 1.96 µM (inactive) | 7.28 µM (inactive) | 2.05 µM (inactive) | 1.78 µM (inactive) | 1.89 µM (inactive) | 1.82 µM (inactive) | 3.29 µM (inactive)
Cc1c([N+](=O)[O-])oc2ccc3ccccc3c12 | 11.9 µM (inactive) | 26.1 µM (inactive) | > 100 µM (inactive) | 18.9 µM (inactive) | 6.32 µM (inactive) | 26.9 µM (inactive) | > 100 µM (inactive) | 16.2 µM (inactive) | 37.8 µM (inactive) | > 100 µM (inactive) | 23 µM (inactive) | > 100 µM (inactive) | 28.5 µM (inactive) | 11.2 µM (inactive) | 22.8 µM (inactive) | > 100 µM (inactive) | 2.9 µM (inactive) | > 100 µM (inactive) | 21.5 µM (inactive) | > 100 µM (inactive)
CCCCCCC(=O)OC[n+]1ccc2c(C)c3[nH]c4ccc(OC)cc4c3c(C)c2c1 | 0.865 µM (active) | 0.0752 µM (active) | 0.476 µM (active) | 0.0611 µM (active) | 0.0706 µM (active) | 0.324 µM (active) | 1.33 µM (inactive) | 0.0656 µM (active) | 2.05 µM (inactive) | 1.32 µM (inactive) | 0.8 µM (active) | 1.05 µM (active) | 1.13 µM (inactive) | 0.329 µM (active) | 0.863 µM (active) | 1.57 µM (inactive) | 0.0486 µM (active) | 0.308 µM (active) | 0.703 µM (active) | 1.18 µM (inactive)
CC(=O)O[C@H]1CC[C@@]2(C)C(=CC[C@H]3[C@@H]4CC[C@H](c5cc(C(F)(F)F)n(C(C)=O)n5)[C@@]4(C)CC[C@@H]32)C1 | 12 µM (inactive) | 5.57 µM (inactive) | 3.24 µM (inactive) | 3.35 µM (inactive) | 2.98 µM (inactive) | 11.3 µM (inactive) | 6.93 µM (inactive) | 7.8 µM (inactive) | 5.22 µM (inactive) | 26.8 µM (inactive) | 7.28 µM (inactive) | 9.4 µM (inactive) | 8.22 µM (inactive) | 6.05 µM (inactive) | 10.6 µM (inactive) | 5.77 µM (inactive) | 3.98 µM (inactive) | 11 µM (inactive) | 8.51 µM (inactive) | 1.22 µM (inactive)
CCOC(=O)C1C(O)CC2c3ccccc3-c3ccccc3C21 (stereo not given) | > 100 µM (inactive) | 21.5 µM (inactive) | 3.2 µM (inactive) | 96.2 µM (inactive) | 8.85 µM (inactive) | 69 µM (inactive) | > 100 µM (inactive) | 27.3 µM (inactive) | 55.2 µM (inactive) | 21.3 µM (inactive) | > 100 µM (inactive) | > 100 µM (inactive) | 27.1 µM (inactive) | 42.5 µM (inactive) | 20.2 µM (inactive) | > 100 µM (inactive) | > 100 µM (inactive) | 33.5 µM (inactive) | > 100 µM (inactive) | 20.1 µM (inactive)
Cc1c2cc[n+]([O-])cc2c(C)c2c1[nH]c1ccccc12 | 7.05 µM (inactive) | 2.86 µM (inactive) | 5.37 µM (inactive) | 4.84 µM (inactive) | 2.88 µM (inactive) | 4.15 µM (inactive) | 12.1 µM (inactive) | 1.94 µM (inactive) | 5.32 µM (inactive) | 3.54 µM (inactive) | 11.4 µM (inactive) | 4.59 µM (inactive) | 5.77 µM (inactive) | 6.04 µM (inactive) | 7.33 µM (inactive) | 12.5 µM (inactive) | 1.29 µM (inactive) | 7.13 µM (inactive) | 7.1 µM (inactive) | 10.2 µM (inactive)
CCc1cc(-c2nsc(=O)o2)c(S(=O)(=O)CC)s1 | 56.9 µM (inactive) | 88.1 µM (inactive) | > 100 µM (inactive) | 37.2 µM (inactive) | 32.6 µM (inactive) | 75 µM (inactive) | 95.5 µM (inactive) | > 100 µM (inactive) | > 100 µM (inactive) | > 100 µM (inactive) | > 100 µM (inactive) | > 100 µM (inactive) | > 100 µM (inactive) | 45.4 µM (inactive) | > 100 µM (inactive) | > 100 µM (inactive) | 38.3 µM (inactive) | 77.8 µM (inactive) | 76 µM (inactive) | 98.9 µM (inactive)
C=C[C@H]1CN2CCc3c([nH]c4cc(O)ccc34)[C@@H]2C[C@@H]1C[C@H]1c2[nH]c3ccccc3c2CCN1C | 6.04 µM (inactive) | 6.11 µM (inactive) | 18.7 µM (inactive) | 2.78 µM (inactive) | 1.69 µM (inactive) | 1.78 µM (inactive) | 3.21 µM (inactive) | 5.28 µM (inactive) | 8.57 µM (inactive) | 3.53 µM (inactive) | 7.62 µM (inactive) | 17 µM (inactive) | 2.11 µM (inactive) | 16 µM (inactive) | 2.16 µM (inactive) | 4.39 µM (inactive) | 2.67 µM (inactive) | 6.67 µM (inactive) | 1.74 µM (inactive) | 3.39 µM (inactive)
CCOC(=O)c1c2c(n(C)c1-c1ccccc1)C(=O)C(C)=CC2=O | 13.5 µM (inactive) | 5.7 µM (inactive) | 11 µM (inactive) | 3.44 µM (inactive) | 2.51 µM (inactive) | 2 µM (inactive) | 13.6 µM (inactive) | 7.28 µM (inactive) | 8.43 µM (inactive) | 18.4 µM (inactive) | 5.87 µM (inactive) | 6.05 µM (inactive) | 14.9 µM (inactive) | 11.6 µM (inactive) | 18.2 µM (inactive) | 2.86 µM (inactive) | 1.91 µM (inactive) | 13.5 µM (inactive) | 3.66 µM (inactive) | 2.07 µM (inactive)
O=C(O)C1C2CCC(C2)C1c1ccccc1 (stereo not given) | > 100 µM (inactive) | > 100 µM (inactive) | > 100 µM (inactive) | > 100 µM (inactive) | > 100 µM (inactive) | > 100 µM (inactive) | 55.5 µM (inactive) | > 100 µM (inactive) | > 100 µM (inactive) | > 100 µM (inactive) | > 100 µM (inactive) | > 100 µM (inactive) | > 100 µM (inactive) | > 100 µM (inactive) | > 100 µM (inactive) | > 100 µM (inactive) | > 100 µM (inactive) | > 100 µM (inactive) | > 100 µM (inactive) | > 100 µM (inactive)
